# Laboratory results from ChEMBL document CHEMBL5537180, “Discovery of Novel Aminobutanoic Acid-Based ASCT2 Inhibitors for the Treatment of Non-Small-Cell Lung Cancer” (J Med Chem, 2024).
# Activity calls are given as the source filed them. The rule behind the calls is not given here.
# Key:
# [1] = test system: A549; assay: Antitumor activity against human A549 cells xenografted in BALB/c nude mouse assessed as decrease in tumor weight at 25 to 50 mg/kg, ip measured daily for 3 weeks; assay type: functional, organism-based; conditions: dose 25-50 mg/kg
# [2] = target: T1, Neutral amino acid transporter B(0) (Homo sapiens) (UniProt Q15758); assay: Inhibition of ASCT2 in human A549 cells assessed as reduction in [13C]-Gln uptake at 50 uM relative to control; assay type: cell-based
# T1 sequence (whole entry): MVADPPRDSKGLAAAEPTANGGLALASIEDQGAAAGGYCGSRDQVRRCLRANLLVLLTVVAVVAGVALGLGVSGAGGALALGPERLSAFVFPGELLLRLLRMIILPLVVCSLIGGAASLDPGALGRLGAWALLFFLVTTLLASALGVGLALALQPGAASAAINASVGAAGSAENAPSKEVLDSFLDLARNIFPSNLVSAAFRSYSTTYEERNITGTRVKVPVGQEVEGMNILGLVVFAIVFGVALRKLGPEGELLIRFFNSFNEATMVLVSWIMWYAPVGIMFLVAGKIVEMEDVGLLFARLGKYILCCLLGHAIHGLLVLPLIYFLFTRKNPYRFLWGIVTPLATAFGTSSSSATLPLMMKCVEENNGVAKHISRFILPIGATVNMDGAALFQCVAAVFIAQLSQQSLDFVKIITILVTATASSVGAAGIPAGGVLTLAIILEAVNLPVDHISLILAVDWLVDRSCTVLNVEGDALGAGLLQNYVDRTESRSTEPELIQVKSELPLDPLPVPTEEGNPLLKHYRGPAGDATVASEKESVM
# [3] = target: T2, Neutral amino acid transporter B(0) (Homo sapiens, UniProt Q15758); assay: Inhibition of ASCT2 in HEK293 cells assessed as reduction in glutamine uptake preincubated for 5 mins followed by substrate addition and measured after 15 mins; assay type: cell-based
# T2 sequence (Q15758 whole entry): T1 sequence (whole entry)
# [4] = target: Large neutral amino acids transporter small subunit 1 (Homo sapiens) (UniProt Q01650); assay: Inhibition of LAT1 (unknown origin) overexpressed in HEK293 cells assessed as reduction in [13C]-Gln uptake preincubated for 5 mins followed by substrate addition and measured after 15 mins; assay type: cell-based; conditions: time 20.0 min
# [5] = test system: A549; assay: Induction of apoptosis in human A549 cells assessed as caspase 3 activation at 5 to 10 uM incubated for 24 hrs by Western blot analysis; assay type: functional, cell-based; conditions: dose 5-10 µM
# [6] = target: Large neutral amino acids transporter small subunit 1 (Homo sapiens) (UniProt Q01650); assay: Inhibition of LAT1 (unknown origin) overexpressed in human A549 cells assessed as reduction in [13C]-Gln uptake preincubated for 5 mins followed by substrate addition and measured after 15 mins; assay type: cell-based; conditions: time 20.0 min
# [7] = test system: A549; assay: Induction of apoptosis in human A549 cells measured after 24 hrs by annexin-V/PI staining based flow cytometry analysis; assay type: functional, cell-based; conditions: dose 5-10 µM
# [8] = Metabolic stability in rat liver microsomes assessed as half life; assay type: ADME, Microsome
# [9] = test system: Cell membrane; assay: Induction of mitochondrial membrane potential loss in human A549 cells assessed as […] aggregates incubated for 24 hrs by JC-1 staining based flow cytometry analysis; assay type: cell membranes; conditions: dose 5-10 µM
# [10] = test system: Cell membrane; assay: Induction of mitochondrial membrane potential loss in human A549 cells assessed as […] aggregates at 5 uM incubated for 24 hrs by JC-1 staining based flow cytometry analysis (reference value: 93.8%); assay type: cell membranes
# [11] = Apparent volume of distribution with respect to the bioavailability in Sprague-Dawley rat at 10 mg/kg, ip incubated for 24 hrs by LC-MS/MS analysis; assay type: ADME, organism-based; conditions: in vivo, read-out: Vc/F
# [12] = test system: A549; assay: Inhibition of AKT/mTORC signalling in human A549 cells assessed as decrease in mTORC1 level at 5 to 10 uM measured after 24 hrs by Western blot analysis; assay type: cell-based; conditions: dose 5-10 µM
# [13] = Metabolic stability in rat liver microsomes assessed as intrinsic clearance; assay type: ADME, Microsome; conditions: read-out: CLH
# [14] = test system: A549; assay: Inhibition of Gln uptake in human A549 cells assessed as reduction in succinate level incubated for 24 hrs by LC-MS/MS analysis; assay type: functional, cell-based
# [15] = Toxicity in BALB/c nude mouse assessed as effect on liver at 25 to 50 mg/kg, ip measured after 3 weeks by H and E staining based analysis; assay type: organism-based; conditions: in vivo, 504 h, dose 25-50 mg/kg
# [16] = test system: A549; assay: Inhibition of AKT/mTORC signalling in human A549 cells assessed as decrease in AKT phosphorylation level at 5 to 10 uM measured after 24 hrs by Western blot analysis; assay type: cell-based; conditions: dose 5-10 µM
# [17] = test system: Cell membrane; assay: Induction of mitochondrial membrane potential loss in human A549 cells assessed as […] aggregates at 10 uM incubated for 24 hrs by JC-1 staining based flow cytometry analysis (reference value: 93.8%); assay type: cell membranes
# [18] = test system: NSCLC; assay: Antiproliferative activity against human NSCLC cells cultured as 2566 organoids assessed as cell viability incubated for 96 hrs by Celltiter-glo viability assay; assay type: functional, cell-based
# [19] = test system: A549; assay: Induction of apoptosis in human A549 cells assessed as downregulation of c-Myc expression at 5 to 10 uM incubated for 24 hrs by Western blot analysis; assay type: functional, cell-based; conditions: dose 5-10 µM
# [20] = Toxicity in BALB/c nude mouse assessed as effect on lung at 25 to 50 mg/kg, ip measured after 3 weeks by H and E staining based analysis; assay type: organism-based; conditions: in vivo, 504 h, dose 25-50 mg/kg
# [21] = test system: A549; assay: Induction of autophagy in human A549 cells assessed as downregulation of AKT phosphorylation level at 5 to 10 uM measured after 24 hrs by Western blot analysis; assay type: functional, cell-based; conditions: dose 5-10 µM
# [22] = target: T3, Sodium-coupled neutral amino acid symporter 1 (Homo sapiens) (UniProt Q9H2H9); assay: Inhibition of SNAT1 (unknown origin) overexpressed in HEK293 cells assessed as reduction in [13C]-Gln uptake preincubated for 5 mins followed by substrate addition and measured after 15 mins; assay type: cell-based; conditions: time 20.0 min
# T3 sequence (whole entry): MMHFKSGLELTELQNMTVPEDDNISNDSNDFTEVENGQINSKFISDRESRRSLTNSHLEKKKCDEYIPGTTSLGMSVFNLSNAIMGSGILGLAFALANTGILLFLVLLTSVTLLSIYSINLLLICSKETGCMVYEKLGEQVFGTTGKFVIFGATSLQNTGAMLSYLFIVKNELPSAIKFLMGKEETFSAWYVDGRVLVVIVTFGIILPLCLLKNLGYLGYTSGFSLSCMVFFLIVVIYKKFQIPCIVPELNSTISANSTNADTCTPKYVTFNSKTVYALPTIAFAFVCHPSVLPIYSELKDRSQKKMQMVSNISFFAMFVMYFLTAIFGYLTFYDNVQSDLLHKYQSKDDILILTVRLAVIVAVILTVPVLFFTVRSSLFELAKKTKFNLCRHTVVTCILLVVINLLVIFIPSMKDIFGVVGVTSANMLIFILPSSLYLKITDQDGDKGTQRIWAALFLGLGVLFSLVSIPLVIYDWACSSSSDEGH
# [23] = Cmax in Sprague-Dawley rat at 10 mg/kg, ip incubated for 24 hrs by LC-MS/MS analysis; assay type: ADME, organism-based; conditions: in vivo
# [24] = Tmax in Sprague-Dawley rat at 10 mg/kg, ip incubated for 24 hrs by LC-MS/MS analysis; assay type: ADME, organism-based; conditions: in vivo
# [25] = test system: A549; assay: Inhibition of Gln uptake in human A549 cells assessed as reduction in malate level incubated for 24 hrs by LC-MS/MS analysis; assay type: functional, cell-based
# [26] = Toxicity in BALB/c nude mouse assessed as effect on heart at 25 to 50 mg/kg, ip measured after 3 weeks by H and E staining based analysis; assay type: organism-based; conditions: in vivo, 504 h, dose 25-50 mg/kg
# Sequence of Large neutral amino acids transporter small subunit 1 (Homo sapiens) (Q01650 whole entry): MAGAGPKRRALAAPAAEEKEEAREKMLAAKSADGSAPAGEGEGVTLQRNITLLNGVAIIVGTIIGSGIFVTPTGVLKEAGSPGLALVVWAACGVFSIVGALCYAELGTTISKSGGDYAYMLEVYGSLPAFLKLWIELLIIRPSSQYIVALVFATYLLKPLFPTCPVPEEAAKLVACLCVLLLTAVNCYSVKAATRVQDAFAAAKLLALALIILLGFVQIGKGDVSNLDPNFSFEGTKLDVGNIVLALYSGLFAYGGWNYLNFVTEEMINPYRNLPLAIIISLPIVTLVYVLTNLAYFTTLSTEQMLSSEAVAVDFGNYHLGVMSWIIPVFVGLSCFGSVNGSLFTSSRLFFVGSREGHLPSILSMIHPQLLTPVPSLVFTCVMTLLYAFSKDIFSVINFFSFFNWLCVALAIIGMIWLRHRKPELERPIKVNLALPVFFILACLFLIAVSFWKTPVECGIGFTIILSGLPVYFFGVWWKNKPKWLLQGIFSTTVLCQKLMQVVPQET
inhibition [2],IC50 [3],inhibition [4],inhibition [6],half-life [8],Activity [9],Activity [10],Vd/F [11],microsomal CLint [13],Activity [17],Compound,Activity [1],Activity [5],Activity [7],inhibition [12],inhibition [14],Activity [15],inhibition [16],IC50 [18],Activity [19],Activity [20],further results
55.6%,5.14 µM,inactive,inactive,167 min,Dose-Dependent Effect,76.1%,20 L/kg,8.27 µL/min/mg,60.3%,CC(C)(C)c1ccc(OCC#Cc2ccccc2)c(CN(CC[C@H](N)C(=O)O)Cc2cc(C(C)(C)C)ccc2OCC#Cc2ccccc2)c1,Active,Active,Dose-Dependent Effect,Active,Active,Toxic,Active,8.08 µM,Active,Toxic,Activity [21]: Active; inhibition [22]: inactive; Cmax [23]: 874 ng/mL; Tmax [24]: 5.33 h; inhibition [25]: Active; Activity [26]: Toxic
90.8%,3.5 µM,inactive,inactive,37.1 min,Dose-Dependent Effect,87.8%,49.5 L/kg,37.5 µL/min/mg,82.4%,N[C@@H](CCN(Cc1ccccc1OCC#Cc1ccc(Cl)cc1)Cc1ccccc1OCC#Cc1ccc(Cl)cc1)C(=O)O,Active,Active,Dose-Dependent Effect,Active,Active,Toxic,Active,5.09 µM,Active,Toxic,Activity [21]: Active; inhibition [22]: inactive; Cmax [23]: 323 ng/mL; Tmax [24]: 1.17 h; inhibition [25]: Active; Activity [26]: Toxic
